Data: patent US20240415819A1, “MACROCYCLIC COMPOUNDS AS PROTEASOME SUBUNIT BETA TYPE-5 INHIBITORS” (Lead Discovery Center GmbH, priority 2021, published 2024)

How the values were obtained:
[1] = molecular target: T1, β5 subunit of the human immunoproteasome (IPS) (Homo sapiens, UniProt P28062); assay: β5 inhibition assay, human immunoproteasome (Suc-LLVY-AMC); assay type: biochemical; settings: IC50 class, Suc-LLVY-AMC substrate
T1 construct: purchased Boston Biochem E-370
Procedure, shortened: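 Human immunoproteasome (1 nM final) was preincubated 10 min at RT with compound in 100 mM HEPES pH 7.5, 50 mM NaCl, 0.02% SDS, 1 mM DTT. Suc-LLVY-AMC (22.6 μM final) was then added for 4 h at RT in the dark. After stopping with 1 μM bortezomib, AMC fluorescence was read (ex 355/em 460 nm).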

[2] = tested on: A549 (human lung carcinoma cell line); assay: Glo assay of A549 cells (Table 3; ProteasomeGlo plating scheme); assay type: cell-based; settings: Homo sapiens; A549 cells; read-out: PGLo A549
Procedure, shortened: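 Luminescent read-out of cellular chymotrypsin-like proteasome activity: cells exposed to compound 105 min at 37° C., 5% CO2, then given Suc-LLVY-Glo reagent, shaken 2-5 min and kept dark 10-15 min before reading. Values are IC50 [nM].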

IC50 [1] [nM] | IC50 [2] [nM] | Compound
< 100 | < 100 | CC(=O)N[C@H]1CC(=O)N2CCCC(CCOc3ccc(C)c(c3)CNC(=O)C(c3cn(C)cn3)NC1=O)C2 (stereo partly drawn) [Compound 557, N-((12S)-5^4-methyl-9-(1-methyl-1H-imidazol-4-yl)-8,11,14-trioxo-4-oxa-7,10-diaza-1(3,1)-piperidina-5(1,3)-benzenacyclotetradecaphane-12-yl)acetamide]
< 100 | < 100 | COc1cccc(CC(=O)N[C@H]2CC(=O)N3CCCC(CCOc4ccc(C)c(c4)CNC(=O)C(c4cnn(C)c4)NC2=O)C3)c1 (stereo partly drawn) [Compound 362, 2-(3-methoxyphenyl)-N-((12S)-5^4-methyl-9-(1-methyl-1H-pyrazol-4-yl)-8,11,14-trioxo-4-oxa-7,10-diaza-1(3,1)-piperidina-5(1,3)-benzenacyclotetradecaphane-12-yl)acetamide]
< 100 | 100 to 500 | Cc1ccc2cc1CNC(=O)[C@H](CCc1ccccc1)NC(=O)[C@@H](NC(=O)OCc1ccccc1)CC(=O)N1CC(C)CC(CCO2)C1 (stereo partly drawn) [Compound 337, benzyl ((9S,12S)-1^5,5^4-dimethyl-8,11,14-trioxo-9-phenethyl-4-oxa-7,10-diaza-1(3,1)-piperidina-5(1,3)-benzenacyclotetradecaphane-12-yl)carbamate]
< 100 | < 100 | CC(=O)N[C@H]1CC(=O)N2CCCC(CCOc3ccc(C)c(c3)CNC(=O)C(Cn3c(=O)oc4ccccc43)NC1=O)C2 (stereo partly drawn) [Compound 555, N-((12S)-5^4-methyl-8,11,14-trioxo-9-((2-oxobenzo[d]oxazol-3(2H)-yl)methyl)-4-oxa-7,10-diaza-1(3,1)-piperidina-5(1,3)-benzenacyclotetradecaphane-12-yl)acetamide]
< 100 | < 100 | Cc1ccc2cc1CNC(=O)[C@H](CCc1ccccc1)NC(=O)[C@@H](NC(=O)OCc1ccccc1)CCC(=O)N1CCC(CCO2)C1 (stereo partly drawn) [Compound 350, benzyl ((9S,12S)-5^4-methyl-8,11,15-trioxo-9-phenethyl-4-oxa-7,10-diaza-1(3,1)-pyrrolidina-5(1,3)-benzenacyclopentadecaphane-12-yl)carbamate]
< 100 | < 100 | Cc1ccc2cc1CNC(=O)C(CCc1cnc3nccnc3c1)NC(=O)[C@@H](NC(=O)OCc1ccccc1)CC(=O)N1CCCC(CCO2)C1 (stereo partly drawn) [Compound 505, benzyl ((12S)-5^4-methyl-8,11,14-trioxo-9-(2-(pyrido[2,3-b]pyrazin-7-yl)ethyl)-4-oxa-7,10-diaza-1(3,1)-piperidina-5(1,3)-benzenacyclotetradecaphane-12-yl)carbamate]
< 100 | < 100 | Cc1ccc2cc1CNC(=O)[C@H](CCc1ccccc1)NC(=O)[C@@H](NC(=O)Cc1cc(O)on1)CC(=O)N1CCCC(CCO2)C1 (stereo partly drawn) [Compound 335, 2-(5-hydroxyisoxazol-3-yl)-N-((9S,12S)-5^4-methyl-8,11,14-trioxo-9-phenethyl-4-oxa-7,10-diaza-1(3,1)-piperidina-5(1,3)-benzenacyclotetradecaphane-12-yl)acetamide]
< 100 | < 100 | Cc1n[nH]c(CC(=O)N[C@H]2CC(=O)N3CCCC(CCOc4ccc(C)c(c4)CNC(=O)[C@H](CCc4ccccc4)NC2=O)C3)n1 (stereo partly drawn) [Compound 332, 2-(3-methyl-1H-1,2,4-triazol-5-yl)-N-((9S,12S)-5^4-methyl-8,11,14-trioxo-9-phenethyl-4-oxa-7,10-diaza-1(3,1)-piperidina-5(1,3)-benzenacyclotetradecaphane-12-yl)acetamide]
< 100 | < 100 | Cc1ccc2cc1CNC(=O)C(CCc1cnc3cccnc3c1)NC(=O)[C@@H](NC(=O)OCc1ccccc1)CC(=O)N1CCCC(CCO2)C1 (stereo partly drawn) [Compound 511, benzyl ((12S)-9-(2-(1,5-naphthyridin-3-yl)ethyl)-5^4-methyl-8,11,14-trioxo-4-oxa-7,10-diaza-1(3,1)-piperidina-5(1,3)-benzenacyclotetradecaphane-12-yl)carbamate]
< 100 | < 100 | CCOC(=O)N[C@H]1CC(=O)N2CCCC(CCOc3ccc(C)c(c3)CNC(=O)C(c3cnn(C)c3)NC1=O)C2 (stereo partly drawn) [Compound 363, Ethyl ((12S)-5^4-methyl-9-(1-methyl-1H-pyrazol-4-yl)-8,11,14-trioxo-4-oxa-7,10-diaza-1(3,1)-piperidina-5(1,3)-benzenacyclotetradecaphane-12-yl)carbamate]
< 100 | < 100 | Cc1ccc2cc1CNC(=O)[C@H](CCc1ccccc1)NC(=O)[C@@H](NC(=O)OCc1ccccc1)CCCCC(=O)N1CC(CCO2)C1 [Compound 353, benzyl ((9S,12S)-5^4-methyl-8,11,17-trioxo-9-phenethyl-4-oxa-7,10-diaza-1(3,1)-azetidina-5(1,3)-benzenacycloheptadecaphane-12-yl)carbamate]
< 100 | < 100 | CC(=O)N[C@H]1CC(=O)N2CCCC(CCOc3ccc(C)c(c3)CNC(=O)C(CCc3ccncc3)NC1=O)C2 (stereo partly drawn) [Compound 551, N-((12S)-5^4-methyl-8,11,14-trioxo-9-(2-(pyridin-4-yl)ethyl)-4-oxa-7,10-diaza-1(3,1)-piperidina-5(1,3)-benzenacyclotetradecaphane-12-yl)acetamide]
< 100 | < 100 | Cc1ccc2cc1CNC(=O)[C@H](CCc1ccccc1)NC(=O)[C@@H](NC(=O)Cc1ccccc1F)CC(=O)N1CCCC(CCO2)C1 (stereo partly drawn) [Compound 333, 2-(2-fluorophenyl)-N-((9S,12S)-5^4-methyl-8,11,14-trioxo-9-phenethyl-4-oxa-7,10-diaza-1(3,1)-piperidina-5(1,3)-benzenacyclotetradecaphane-12-yl)acetamide]
< 100 | < 100 | Cc1ccc2cc1CNC(=O)C(CCc1cnccn1)NC(=O)[C@@H](NC(=O)C1(c3ccc(N)cc3)CC1)CC(=O)N1CCCC(CCO2)C1 (stereo partly drawn) [Compound 371, 1-(4-aminophenyl)-N-((9S,12S)-5^4-methyl-8,11,14-trioxo-9-(2-(pyrazin-2-yl)ethyl)-4-oxa-7,10-diaza-1(3,1)-piperidina-5(1,3)-benzenacyclotetradecaphane-12-yl)cyclopropane-1-carboxamide]
< 100 | 500 to 1000 | Cc1ccc2cc1CNC(=O)C(c1cnn(C)c1)NC(=O)CCCCC(=O)N1CCCC(CCO2)C1 (stereo not shown) [Compound 356, 5^4-methyl-9-(1-methyl-1H-pyrazol-4-yl)-4-oxa-7,10-diaza-1(3,1)-piperidina-5(1,3)-benzenacyclohexadecaphane-8,11,16-trione]
100 to 500 | 500 to 1000 | CC(=O)N[C@H]1CC(=O)N(C)CCCCOc2ccc(C)c(c2)CNC(=O)[C@H](CCc2ccccc2)NC1=O [Compound 296, N-(1^4,7-dimethyl-8,11,14-trioxo-13-phenethyl-2-oxa-7,12,15-triaza-1(1,3)-benzenacyclohexadecaphane-10-yl)acetamide]
< 100 | 100 to 500 | CC(=O)N[C@H]1CCCC(=O)N(C)CCCCOc2ccc(C)c(c2)CNC(=O)[C@H](CCc2ccccc2)NC1=O [Compound 295, N-(1^4,7-dimethyl-8,13,16-trioxo-15-phenethyl-2-oxa-7,14,17-triaza-1(1,3)-benzenacyclooctadecaphane-12-yl)acetamide]
< 100 | 100 to 500 | Cc1ccc2cc1CNC(=O)[C@H](CCc1ccccc1)NC(=O)[C@@H](NC(=O)Cc1nc(-c3ccncc3)n[nH]1)CC(=O)N1CCCC(CCO2)C1 (stereo partly drawn) [Compound 329, N-((9S,12S)-5^4-methyl-8,11,14-trioxo-9-phenethyl-4-oxa-7,10-diaza-1(3,1)-piperidina-5(1,3)-benzenacyclotetradecaphane-12-yl)-2-(3-(pyridin-4-yl)-1H-1,2,4-triazol-5-yl)acetamide]
< 100 | < 100 | Cc1ccc2cc1CNC(=O)C(c1cnn(C)c1)NC(=O)[C@@H](NC(=O)[C@@H](C)c1ccccc1)CC(=O)N1CCCC(CCO2)C1 (stereo partly drawn) [Compound 359, (2S)-N-((12S)-5^4-methyl-9-(1-methyl-1H-pyrazol-4-yl)-8,11,14-trioxo-4-oxa-7,10-diaza-1(3,1)-piperidina-5(1,3)-benzenacyclotetradecaphane-12-yl)-2-phenylpropanamide]
< 100 | 100 to 500 | Cc1ccc2cc1CNC(=O)C(CCc1ccccc1)NC(=O)[C@@H](NC(=O)OCc1ccccc1)CC(=O)N1CCCC(CCO2)C1 (stereo partly drawn) [Compound 503, benzyl ((12S)-9-phenethyl-5^4-methyl-8,11,14-trioxo-4-oxa-7,10-diaza-1(3,1)-piperidina-5(1,3)-benzenacyclotetradecaphane-12-yl)carbamate]
< 100 | < 100 | COC(C(=O)N[C@H]1CC(=O)N2CCCC(CCOc3ccc(C)c(c3)CNC(=O)[C@H](CCc3ccccc3)NC1=O)C2)c1ccc(N)cc1 (stereo partly drawn) [Compound 326, 2-(4-aminophenyl)-2-methoxy-N-((9S,12S)-5^4-methyl-8,11,14-trioxo-9-phenethyl-4-oxa-7,10-diaza-1(3,1)-piperidina-5(1,3)-benzenacyclotetradecaphane-12-yl)acetamide]
< 100 | 1000 to 5000 | Cc1ccc2cc1CNC(=O)[C@H](CCc1ccccc1)NC(=O)[C@@H](NC(=O)OCc1ccccc1)CC(=O)N1CCCC3(CC(C3)O2)C1 [Compound 300]
< 100 | < 100 | CC(=O)N[C@H]1CC(=O)N2CCCC(CCOc3ccc(C)c(c3)CNC(=O)C(c3cc(C)sn3)NC1=O)C2 (stereo partly drawn) [Compound 556, N-((12S)-5^4-methyl-9-(5-methylisothiazol-3-yl)-8,11,14-trioxo-4-oxa-7,10-diaza-1(3,1)-piperidina-5(1,3)-benzenacyclotetradecaphane-12-yl)acetamide]
